According to PubChem BioAssay (NCI):
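Where inhibition never reached the appropriate level, the endpoint shown equals the highest concentration tested. Otherwise, values were interpolated linearly from a five-concentration, 48-hour dose response in 96-well plates. Abbreviation: GI50, concentration required for 50% inhibition of growth. The concentration for full growth arrest is given as TGI.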

Assays:
Assay in all cases: NCI-60 cell line screen, 48 h
[1] = system: SK-MEL-2 melanoma
[2] = system: KM12 colon
[3] = system: RXF 393 renal
[4] = system: CAKI-1 renal
[5] = system: HCC-2998 colon
[6] = system: OVCAR-8 ovarian
[7] = system: MDA-MB-231 breast
[8] = system: HCT-116 colon
[9] = system: NCI-H460 lung
[10] = system: SK-OV-3 ovarian
[11] = system: UO-31 renal
[12] = system: NCI-H23 lung
[13] = system: A549 NSCLC
[14] = system: SNB-19 CNS
[15] = system: MOLT-4 leukemia
[16] = system: SR leukemia
[17] = system: U251 CNS
[18] = system: SK-MEL-5 melanoma
[19] = system: SW-620 colon
[20] = system: MDA-MB-435
[21] = system: HT29 colon
[22] = system: ACHN renal
[23] = system: HCT-15 colon
[24] = system: SN12C renal
[25] = system: HL-60(TB) leukemia
[26] = system: OVCAR-3 ovarian
[27] = system: NCI-H522 lung
[28] = system: RPMI-8226 leukemia
[29] = system: M14 melanoma
[30] = system: HS 578T breast
[31] = system: SF-539 CNS
[32] = system: IGROV1 ovarian
[33] = system: 786-0 renal
[34] = system: OVCAR-5 ovarian
[35] = system: COLO 205 colon
[36] = system: LOX IMVI melanoma
[37] = system: NCI-H226 lung
[38] = system: SNB-75 CNS
[39] = system: CCRF-CEM leukemia
[40] = system: K-562 leukemia
[41] = system: BT-549 breast
[42] = system: OVCAR-4 ovarian
[43] = system: UACC-257 melanoma
[44] = system: NCI/ADR-RES ovarian
[45] = system: TK-10 renal
[46] = system: SF-295 CNS
[47] = system: SK-MEL-28 melanoma
[48] = system: PC-3 prostate
[49] = system: DU-145 prostate
[50] = system: T-47D breast
[51] = system: UACC-62 melanoma
[52] = system: HOP-62 NSCLC
[53] = system: SF-268 CNS
[54] = system: MCF7 breast
[55] = system: HOP-92 NSCLC

How did the GI50 [1] turn out when `CC(C)N(CCCNC(=O)Nc1ccc(C(C)(C)C)cc1)C[C@H]1O[C@@H](n2ccc3c(N)ncnc32)[C@H](O)[C@@H]1O` was run?
Its GI50 is > 100 µM.

What about the TGI [1] of the same compound?
The TGI was > 100 µM.

And the GI50 [2]?
Its GI50 is > 100 µM.

What about the TGI [2] of the same compound?
The TGI was > 100 µM.

And the GI50 [3]?
Its GI50 is > 100 µM.

And the TGI [3]?
Its TGI is > 100 µM.

And the GI50 [4]?
The GI50 was > 100 µM.

And the TGI [4]?
The TGI was > 100 µM.

And the GI50 [5]?
The GI50 was > 100 µM.

And the TGI [5]?
Its TGI is > 100 µM.

And the GI50 [6]?
The GI50 was > 100 µM.

What about the TGI [6] of the same compound?
The TGI was > 100 µM.

And the GI50 [7]?
Its GI50 is > 100 µM.

And the TGI [7]?
The TGI was > 100 µM.

And the GI50 [8]?
Its GI50 is > 100 µM.

What about the TGI [8] of the same compound?
The TGI was > 100 µM.

What about the GI50 [9] of the same compound?
The GI50 was > 100 µM.

What about the TGI [9] of the same compound?
The TGI was > 100 µM.

And the GI50 [10]?
Its GI50 is > 100 µM.

And the TGI [10]?
Its TGI is > 100 µM.

And the GI50 [11]?
The GI50 was > 100 µM.

And the TGI [11]?
Its TGI is > 100 µM.

What about the GI50 [12] of the same compound?
Its GI50 is > 100 µM.

And the TGI [12]?
Its TGI is > 100 µM.

What about the GI50 [13] of the same compound?
The GI50 was > 100 µM.

What about the TGI [13] of the same compound?
Its TGI is > 100 µM.

What about the GI50 [14] of the same compound?
Its GI50 is > 100 µM.

And the TGI [14]?
Its TGI is > 100 µM.

And the GI50 [15]?
Its GI50 is > 100 µM.

What about the TGI [15] of the same compound?
The TGI was > 100 µM.

And the GI50 [16]?
The GI50 was > 100 µM.

And the TGI [16]?
Its TGI is > 100 µM.

What about the GI50 [17] of the same compound?
The GI50 was > 100 µM.

What about the TGI [17] of the same compound?
The TGI was > 100 µM.

What about the GI50 [18] of the same compound?
The GI50 was > 100 µM.

And the TGI [18]?
The TGI was > 100 µM.

What about the GI50 [19] of the same compound?
Its GI50 is > 100 µM.

What about the TGI [19] of the same compound?
The TGI was > 100 µM.

And the GI50 [20]?
The GI50 was > 100 µM.

And the TGI [20]?
The TGI was > 100 µM.

And the GI50 [21]?
Its GI50 is > 100 µM.

What about the TGI [21] of the same compound?
The TGI was > 100 µM.

And the GI50 [22]?
The GI50 was > 100 µM.

What about the TGI [22] of the same compound?
The TGI was > 100 µM.

And the GI50 [23]?
The GI50 was > 100 µM.

And the TGI [23]?
The TGI was > 100 µM.

And the GI50 [24]?
The GI50 was > 100 µM.

And the TGI [24]?
The TGI was > 100 µM.

And the GI50 [25]?
Its GI50 is > 100 µM.

What about the TGI [25] of the same compound?
The TGI was > 100 µM.

And the GI50 [26]?
Its GI50 is > 100 µM.

And the TGI [26]?
Its TGI is > 100 µM.

What about the GI50 [27] of the same compound?
Its GI50 is > 100 µM.

What about the TGI [27] of the same compound?
Its TGI is > 100 µM.

What about the GI50 [28] of the same compound?
The GI50 was > 100 µM.

What about the TGI [28] of the same compound?
The TGI was > 100 µM.

And the GI50 [29]?
The GI50 was > 100 µM.

And the TGI [29]?
The TGI was > 100 µM.

And the GI50 [30]?
The GI50 was > 100 µM.

And the TGI [30]?
Its TGI is > 100 µM.

What about the GI50 [31] of the same compound?
Its GI50 is > 100 µM.

And the TGI [31]?
Its TGI is > 100 µM.

What about the GI50 [32] of the same compound?
Its GI50 is > 100 µM.

And the TGI [32]?
Its TGI is > 100 µM.

And the GI50 [33]?
The GI50 was > 100 µM.

What about the TGI [33] of the same compound?
The TGI was > 100 µM.

What about the GI50 [34] of the same compound?
Its GI50 is > 100 µM.

What about the TGI [34] of the same compound?
The TGI was > 100 µM.

And the GI50 [35]?
The GI50 was > 100 µM.

What about the TGI [35] of the same compound?
The TGI was > 100 µM.

And the GI50 [36]?
The GI50 was > 100 µM.

And the TGI [36]?
Its TGI is > 100 µM.

What about the GI50 [37] of the same compound?
Its GI50 is > 100 µM.

What about the TGI [37] of the same compound?
The TGI was > 100 µM.

What about the GI50 [38] of the same compound?
The GI50 was 26.2 µM.

What about the TGI [38] of the same compound?
The TGI was > 100 µM.

And the GI50 [39]?
The GI50 was > 100 µM.

What about the TGI [39] of the same compound?
Its TGI is > 100 µM.

And the GI50 [40]?
Its GI50 is > 100 µM.

And the TGI [40]?
Its TGI is > 100 µM.

And the GI50 [41]?
Its GI50 is > 100 µM.

And the TGI [41]?
Its TGI is > 100 µM.

What about the GI50 [42] of the same compound?
The GI50 was > 100 µM.

What about the TGI [42] of the same compound?
Its TGI is > 100 µM.

And the GI50 [43]?
Its GI50 is > 100 µM.

What about the TGI [43] of the same compound?
The TGI was > 100 µM.

What about the GI50 [44] of the same compound?
The GI50 was > 100 µM.

What about the TGI [44] of the same compound?
Its TGI is > 100 µM.

What about the GI50 [45] of the same compound?
The GI50 was > 100 µM.

And the TGI [45]?
The TGI was > 100 µM.

What about the GI50 [46] of the same compound?
The GI50 was > 100 µM.

And the TGI [46]?
Its TGI is > 100 µM.

And the GI50 [47]?
Its GI50 is > 100 µM.

And the TGI [47]?
Its TGI is > 100 µM.

And the GI50 [48]?
Its GI50 is > 100 µM.

And the TGI [48]?
Its TGI is > 100 µM.

And the GI50 [49]?
The GI50 was > 100 µM.

And the TGI [49]?
The TGI was > 100 µM.

What about the GI50 [50] of the same compound?
Its GI50 is > 100 µM.

And the TGI [50]?
Its TGI is > 100 µM.

What about the GI50 [51] of the same compound?
Its GI50 is > 100 µM.

What about the TGI [51] of the same compound?
Its TGI is > 100 µM.

What about the GI50 [52] of the same compound?
Its GI50 is > 100 µM.

What about the TGI [52] of the same compound?
Its TGI is > 100 µM.

And the GI50 [53]?
Its GI50 is > 100 µM.

And the TGI [53]?
Its TGI is > 100 µM.

And the GI50 [54]?
Its GI50 is > 100 µM.

And the TGI [54]?
Its TGI is > 100 µM.

What about the GI50 [55] of the same compound?
Its GI50 is > 100 µM.

And the TGI [55]?
Its TGI is > 100 µM.
